For the assay, the system named is AtCESA6 (cesa6 alleles es20r1-es20r15). Nature of the assay: Root growth of EMS-induced cesa6 mutants es20r1-es20r15 on ES20 analogs. In kind it is in vivo, Arabidopsis thaliana. The note with it: compared with wild-type/control plants. An excerpt: A subset of active ES20 analogs likely target the catalytic domain of AtCESA6. […] Since ES20 and the nine active ES20 analogs share highly similar structures, we reasoned whether these active analogs target AtCESA6 as well. We therefore examined the growth of es20r1-es20r15 plants in the presence of nine active ES20 analogs compared to wild-type plants.
To test the inhibitory effects of different chemicals on plant growth, wild-type Arabidopsis Col-0 plants were used. The seeds of plants used for growth assays or live cell imaging were sequentially sterilized with 50% bleach and 75% ethanol. […] To quantify the inhibitory effects of different ES20 active analogs on the root growth of Arabidopsis wildtype, EMS mutants, and transgenic plants expressing mutated AtCESA6 in prc1-1 background, sterilized Col-0, mutants, and transgenic plants seeds were sown on gridded Petri plates containing ½-strength MS medium supplemented with different concentrations of ES20 analogs. […] The plates were scanned using an Epson Perfection V550 scanner after 7 days of growth, and the root lengths of plants were quantified using ImageJ software. […] The Petri dishes were scanned, and hypocotyl length was measured using ImageJ. Transgenic plants expressing fluorescence-tagged PIN2, PIP2a, HDEL, VHA-a1, and GOT1p were as reported previously (Xu and Scheres, Plant Cell, 2005, 17, 525-536).

This is an account of results in patent publication US11938121B2, “Treatment of infections and biofilm formation using a cellulose synthase inhibitor” (Purdue Research Foundation, priority 2020, dated 2024).

For `Cc1ccccc1C(=O)NNC(=S)NC(=O)c1ccccc1` [ES20-1], the “sensitivity of es20r1-es20r15 mutants in growth” value was “All 15 mutants, which show reduced sensitivity to ES20, also showed reduced sensitivity”.
